Measured values published in PubChem BioAssay (NCI).
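Dose response: 5 concentrations. Exposure: 48 h. Format: 96-well plates. Endpoint: linear interpolation; highest concentration if not reached. The concentration for full growth arrest is given as TGI.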

Legend:
Experiment in all cases: growth of human tumour cells (NCI), 48 h
NCI-H226 lung = system: NCI-H226 lung
A549 NSCLC = system: A549 NSCLC
CCRF-CEM leukemia = system: CCRF-CEM leukemia
HCC-2998 colon = system: HCC-2998 colon
HOP-92 NSCLC = system: HOP-92 NSCLC
NCI-H23 lung = system: NCI-H23 lung
SK-OV-3 ovarian = system: SK-OV-3 ovarian
TK-10 renal = system: TK-10 renal
ACHN renal = system: ACHN renal
UACC-62 melanoma = system: UACC-62 melanoma
CAKI-1 renal = system: CAKI-1 renal
MALME-3M melanoma = system: MALME-3M melanoma
SNB-19 CNS = system: SNB-19 CNS
UACC-257 melanoma = system: UACC-257 melanoma
HT29 colon = system: HT29 colon
SR leukemia = system: SR leukemia
MDA-MB-435 = system: MDA-MB-435
SNB-75 CNS = system: SNB-75 CNS
HCT-15 colon = system: HCT-15 colon
786-0 renal = system: 786-0 renal

Compound | TGI (NCI-H226 lung) [µM] | TGI (A549 NSCLC) [µM] | TGI (CCRF-CEM leukemia) [µM] | TGI (HCC-2998 colon) [µM] | TGI (HOP-92 NSCLC) [µM] | TGI (NCI-H23 lung) [µM] | TGI (SK-OV-3 ovarian) [µM] | TGI (TK-10 renal) [µM] | TGI (ACHN renal) [µM] | TGI (UACC-62 melanoma) [µM] | TGI (CAKI-1 renal) [µM] | TGI (MALME-3M melanoma) [µM] | TGI (SNB-19 CNS) [µM] | TGI (UACC-257 melanoma) [µM] | TGI (HT29 colon) [µM] | TGI (SR leukemia) [µM] | TGI (MDA-MB-435) [µM] | TGI (SNB-75 CNS) [µM] | TGI (HCT-15 colon) [µM] | TGI (786-0 renal) [µM]
CC1=C(C(=O)NNC(=O)c2ccccc2O)CC(C(=O)NNC(=O)c2ccccc2O)=C(C)N1 | > 41.7 | > 100 | > 35.5 | > 100 | > 100 | > 100 | > 100 | > 100 | > 88.7 | > 100 | > 100 | > 100 | > 100 | > 100 | > 100 | > 29.2 | > 100 | > 100 | > 100 | > 61.7
O=C(O)c1ccc(Nc2nc3ccc(C(F)(F)F)cc3nc2C(=O)O)cc1 | > 100 | > 100 | > 100 | > 100 | > 100 | > 100 | > 100 | > 100 | > 100 | > 100 | > 100 | > 100 | > 100 | > 100 | > 100 | > 100 | > 100 | > 100 | > 100 | > 100
O=C(OCC1CC(C2(O)CCCCC2)C(=O)O1)c1ccccc1 (stereo not drawn) | > 100 | > 100 | > 100 | > 100 | > 100 | > 100 | > 100 | > 100 | > 100 | > 100 | > 100 | > 100 | > 100 | > 100 | > 100 | > 100 | > 100 | > 100 | > 100 | > 100
CC1=NC(=O)CNN1C1=NNC2(C(=O)N1)c1ccccc1-c1ccccc12 | > 100 | > 100 | > 100 | > 100 | > 100 | > 100 | > 100 | > 100 | > 100 | > 100 | > 100 | > 100 | > 100 | > 100 | > 100 | > 100 | > 100 | > 100 | > 100 | > 100
O=C(/C=C/c1ccc(O)c(O)c1)c1ccc(O)cc1O | 37.6 | 72.3 | > 71.7 | 34.2 | 33.3 | 39.9 | 38 | 60.3 | 45.3 | 48.3 | 28.9 | 28.7 | 43.9 | 29.9 | 33.4 | > 78.8 | 29.1 | 25.2 | 44.3 | 25.5
C/C1=C\CC[C@@]2(C)O[C@@H]2C[C@@H]2[C@H](C/C(C)=C/CC1)OC(=O)[C@]21CO1 | > 100 | > 100 | > 100 | > 100 | > 100 | > 100 | > 100 | > 100 | > 100 | > 100 | > 100 | > 100 | > 100 | > 100 | > 100 | > 100 | > 100 | > 100 | > 100 | > 100
C[C@@]12C[C@@H](c3ccccc3O1)N1CCCSC1=N2 | > 100 | – | > 100 | > 100 | > 100 | > 100 | > 100 | > 100 | > 100 | > 100 | > 100 | > 100 | > 100 | > 100 | > 100 | > 100 | > 100 | > 100 | > 100 | > 100
CC(C)NC(=O)OCc1c(COC(=O)NC(C)C)c(-c2cc[n+](COC(=O)Cc3ccccc3)cc2)n2c1CCC2 | > 100 | > 100 | > 100 | > 100 | > 100 | > 100 | > 100 | > 100 | > 100 | > 100 | > 100 | > 100 | > 100 | > 100 | > 100 | > 100 | > 100 | > 100 | > 100 | > 100
O=C(Nc1ccccc1)c1cc2cc(CCl)ccc2oc1=O | > 100 | > 100 | > 100 | > 100 | > 100 | > 100 | > 100 | > 100 | 31.1 | 32.8 | > 100 | > 100 | > 100 | > 100 | > 100 | > 100 | > 100 | > 100 | > 100 | > 100
CCOC(=O)c1c(Br)c(-c2ccc([N+](=O)[O-])cc2)c(Br)n1C | > 10 | > 10 | > 10 | > 10 | > 10 | > 10 | > 10 | > 10 | > 10 | > 10 | > 10 | > 10 | > 10 | > 10 | > 10 | > 10 | > 10 | > 10 | > 10 | > 10
O=[N+]([O-])c1ccc(C2NC(=S)NC3c4cc([N+](=O)[O-])ccc4CCCC23)cc1 (stereo not drawn) | > 100 | > 100 | > 100 | > 100 | 45.5 | > 100 | > 100 | > 100 | > 100 | > 100 | > 100 | > 100 | > 100 | > 100 | > 100 | > 100 | > 100 | 44.2 | > 100 | > 100
Cn1c2ccccc2c(=NNc2ccc(S(=O)(=O)N=C(N)N)cc2)c2ccccc21 | 19 | 26.7 | 31.9 | 19.8 | 36.4 | 26.9 | 21.3 | 26.5 | 20.1 | 32 | 38.8 | 20.7 | 22.6 | 34.9 | 14.5 | 40.5 | 23.7 | 25.4 | 36.7 | 19.2
COc1ccccc1/C=C1\CCC(CN2CCOCC2)C1=O (stereo not drawn) | 31.8 | 45 | > 21.3 | 28.3 | 40.2 | 43.5 | > 57.5 | 12.5 | 30 | 30.3 | 32.1 | 23.7 | 22.6 | 23.9 | 56.6 | 5.7 | 20.4 | 46.3 | 12.3 | 8.53
c1cc2cc(Cc3ccc4[nH]ccc4c3)ccc2[nH]1 | 34.2 | 34.8 | > 100 | 28.8 | 34.9 | 39.8 | 47.8 | 52.3 | 64.8 | 38.9 | 33.5 | 34.4 | 47.5 | 57.7 | 33.1 | 39.2 | 45.7 | 38.6 | 28 | 33.6
CCCCCCc1cc2cc(-c3cn4ccccc4n3)c(=O)oc2cc1O | 34.5 | 31.2 | > 100 | 47.2 | 32.6 | 17 | 26.5 | 30.1 | 38.1 | 20.6 | 13.5 | 4.74 | 26 | 50.9 | > 100 | 18.8 | 20.6 | 8.81 | 20.9 | 4.76
Cc1cc(S(=O)(=O)Nc2nnc3c(Cl)cc(C(F)(F)F)cn23)c(S)cc1Cl | > 100 | > 100 | > 100 | > 100 | > 100 | > 100 | > 100 | > 100 | > 100 | > 100 | > 100 | > 100 | > 91.4 | > 100 | > 100 | > 100 | > 100 | 9.12 | > 100 | > 100
CC(C)(C)c1cc(OCc2n[nH]c(=S)n2N)c(Cl)cc1OCc1n[nH]c(=S)n1N | > 100 | > 100 | > 100 | > 100 | > 100 | > 100 | > 100 | > 100 | > 100 | 50.3 | > 100 | > 100 | > 100 | > 100 | > 100 | > 100 | > 100 | > 100 | > 100 | > 100
CC(=O)OC1CC2C(=O)CC1(C)C2(C)C (stereo not drawn) | > 100 | > 100 | > 100 | > 100 | > 100 | > 100 | > 100 | > 100 | > 100 | > 100 | > 100 | > 100 | > 100 | > 100 | > 100 | > 100 | > 100 | > 100 | > 100 | > 100
COc1cc(C2SCC(=O)N2c2ccc(Cl)cc2)cc(OC)c1OC (stereo not drawn) | 98.4 | > 100 | 30.6 | > 100 | > 100 | > 100 | > 100 | > 100 | > 100 | – | > 100 | > 100 | > 100 | > 100 | > 41 | 39.2 | 19.4 | > 100 | > 100 | 99.6
